Data set [1] in a line: Intrinsic clearance in human hepatocytes. It is filed as ADME, cell-based, Hepatocyte. To be noted: read-out: CLH.
Data set [2] in a line: AUC in Beagle dog at 3 mg/kg, iv measured upto 24 hrs by LC-MS/MS analysis. On the set-up: route intravenous, dose 3 mg/kg, time <=24. The class given is ADME, organism-based, Canis lupus familiaris. The settings on record: in vivo.
The nature of data set [3]: Octanol/buffer distribution coefficient, logD of the compound at pH 7.4. The class given is physicochemical.
Data set [4] concerns the target Serine/threonine-protein kinase PLK2 (Homo sapiens, UniProt Q9NYY3). Nature of the data set: Inhibition of PLK2 (unknown origin).
Data set [5] has as its system A-427. Nature of the data set: Antiproliferative activity against human A-427 cells assessed as reduction in cell viability after 3 days by CellTiter-Glo assay. To be noted: A-427, 72 h. It is filed as functional, cell-based. On the technique in general: In ATP-based viability assays light output follows the ATP content of the culture.
Data set [6] concerns NCI-H23. Nature of the data set: Antiproliferative activity against human NCI-H23 cells assessed as reduction in cell viability after 4 days by CellTiter-Glo assay. To be noted: Homo sapiens, NCI-H23, 96 h.
Data set [7] is described as follows: Permeability of the compound across apical to basolateral side in human Caco-2 cells. The class given is ADME, cell-based. To be noted: read-out: permeability. In general terms: Passage across Caco-2 layers is used to estimate intestinal permeability.
A short description of data set [8]: AUC(0 to 24 hrs) in rat at 60 mg/kg, po. Details: time < 24 hr, route oral, dose 60 mg/kg. The class given is ADME, organism-based. The settings on record: in vivo.
The nature of data set [9]: Cmax in Beagle dog at 10 mg/kg, po measured upto 24 hrs by LC-MS/MS analysis. It is filed as ADME, organism-based, Canis lupus familiaris. Details: route oral, dose 10 mg/kg, time <=24. To be noted: in vivo.
The nature of data set [10]: Volume of distribution at steady state in Beagle dog at 3 mg/kg, iv measured upto 24 hrs by LC-MS/MS analysis. The settings on record: in vivo, read-out: Vdss. It is filed as ADME, organism-based, Canis lupus familiaris.
For data set [11], the target named is Serine/threonine-protein kinase PLK3 (Homo sapiens, UniProt Q9H4B4). Nature of the data set: Inhibition of PLK3 (unknown origin) at 1 uM relative to control.
The nature of data set [12]: AUC(0 to 24 hrs) in mouse at 60 mg/kg, po. The settings on record: in vivo. The class given is ADME, organism-based. Details: time < 24 hr, route oral, dose 60 mg/kg.
Data set [13] deals with T1, Mitogen-activated protein kinase kinase kinase 19 (Homo sapiens) (UniProt Q56UN5).
T1 sequence (whole entry): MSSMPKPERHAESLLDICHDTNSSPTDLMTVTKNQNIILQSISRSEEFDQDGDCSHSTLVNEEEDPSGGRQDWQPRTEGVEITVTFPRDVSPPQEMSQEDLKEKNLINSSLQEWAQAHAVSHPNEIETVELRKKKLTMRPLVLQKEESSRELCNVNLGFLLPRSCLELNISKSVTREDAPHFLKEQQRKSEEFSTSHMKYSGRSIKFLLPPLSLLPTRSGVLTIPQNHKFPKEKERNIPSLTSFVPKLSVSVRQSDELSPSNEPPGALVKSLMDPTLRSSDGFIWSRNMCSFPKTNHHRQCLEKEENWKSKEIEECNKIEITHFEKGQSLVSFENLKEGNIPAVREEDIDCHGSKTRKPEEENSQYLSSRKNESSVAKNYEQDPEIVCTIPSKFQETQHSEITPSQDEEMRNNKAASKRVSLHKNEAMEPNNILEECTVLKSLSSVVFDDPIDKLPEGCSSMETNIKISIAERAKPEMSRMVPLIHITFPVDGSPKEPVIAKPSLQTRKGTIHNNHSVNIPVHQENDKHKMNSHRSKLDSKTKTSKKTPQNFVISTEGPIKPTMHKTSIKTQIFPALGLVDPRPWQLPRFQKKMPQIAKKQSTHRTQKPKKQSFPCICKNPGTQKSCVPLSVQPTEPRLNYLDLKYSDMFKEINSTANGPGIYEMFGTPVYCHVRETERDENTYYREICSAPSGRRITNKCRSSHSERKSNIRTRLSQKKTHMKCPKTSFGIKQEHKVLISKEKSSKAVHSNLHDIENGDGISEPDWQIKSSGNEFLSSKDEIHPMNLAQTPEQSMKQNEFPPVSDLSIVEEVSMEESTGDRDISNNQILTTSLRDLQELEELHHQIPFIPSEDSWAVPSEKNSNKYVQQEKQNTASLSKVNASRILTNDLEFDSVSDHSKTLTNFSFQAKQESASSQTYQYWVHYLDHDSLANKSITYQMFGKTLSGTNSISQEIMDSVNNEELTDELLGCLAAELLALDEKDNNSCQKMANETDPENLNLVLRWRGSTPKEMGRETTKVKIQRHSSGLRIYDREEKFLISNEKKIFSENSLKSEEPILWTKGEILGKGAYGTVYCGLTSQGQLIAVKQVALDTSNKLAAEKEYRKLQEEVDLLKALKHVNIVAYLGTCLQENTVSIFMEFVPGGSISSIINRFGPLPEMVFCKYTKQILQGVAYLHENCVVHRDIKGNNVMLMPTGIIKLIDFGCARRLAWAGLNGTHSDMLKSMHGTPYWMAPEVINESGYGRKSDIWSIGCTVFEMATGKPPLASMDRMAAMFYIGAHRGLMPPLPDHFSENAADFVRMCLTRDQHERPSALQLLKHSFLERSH
Nature of the data set: Inhibition of YSK4 (unknown origin) at 1 uM relative to control.

Data set [14] is described as follows: Intrinsic clearance in human microsomes. It is filed as ADME, Microsome.
Data set [15] is described as follows: Half life in Beagle dog at 10 mg/kg, po measured upto 24 hrs by LC-MS/MS analysis. It is filed as ADME, organism-based, Canis lupus familiaris. The settings on record: in vivo.
The target of data set [16] is T2, Serine/threonine-protein kinase PLK1 (Homo sapiens, UniProt P53350). Nature of the data set: Inhibition of PLK1 (unknown origin).
Data set [17] deals with T3, Mitogen-activated protein kinase kinase kinase 3 (Homo sapiens) (UniProt Q99759).
T3 sequence (whole entry): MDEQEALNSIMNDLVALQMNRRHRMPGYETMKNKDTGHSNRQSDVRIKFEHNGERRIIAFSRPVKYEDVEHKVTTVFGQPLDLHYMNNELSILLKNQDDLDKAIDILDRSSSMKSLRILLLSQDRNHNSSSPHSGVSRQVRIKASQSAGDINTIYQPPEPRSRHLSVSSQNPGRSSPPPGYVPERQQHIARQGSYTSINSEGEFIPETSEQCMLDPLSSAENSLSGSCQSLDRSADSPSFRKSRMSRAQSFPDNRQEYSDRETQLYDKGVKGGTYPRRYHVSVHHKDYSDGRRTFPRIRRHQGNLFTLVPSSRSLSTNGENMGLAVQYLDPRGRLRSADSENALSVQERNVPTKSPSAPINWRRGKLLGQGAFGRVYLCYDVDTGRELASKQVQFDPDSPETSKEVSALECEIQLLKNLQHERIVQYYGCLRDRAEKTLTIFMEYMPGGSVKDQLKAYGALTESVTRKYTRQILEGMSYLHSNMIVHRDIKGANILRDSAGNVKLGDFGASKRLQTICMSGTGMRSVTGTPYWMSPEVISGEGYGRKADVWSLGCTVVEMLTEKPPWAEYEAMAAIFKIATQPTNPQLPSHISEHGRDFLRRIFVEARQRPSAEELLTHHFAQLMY
Nature of the data set: Inhibition of MAP3K3 (unknown origin) at 1 uM relative to control.

Data set [18] in a line: Oral bioavailability in Beagle dog at 10 mg/kg measured upto 24 hrs by LC-MS/MS analysis. It is filed as ADME, organism-based, Canis lupus familiaris. To be noted: in vivo.
Data set [19] has as its target T4, Mitogen-activated protein kinase kinase kinase 19 (Homo sapiens, UniProt Q56UN5).
T4 sequence (Q56UN5 whole entry): T1 sequence (whole entry)
Nature of the data set: Inhibition of YSK4 (unknown origin).

For data set [20], the target named is Epidermal growth factor receptor (Homo sapiens, UniProt P00533, 747-749DEL/A750P). Nature of the data set: Inhibition of EGFR d747-749/A750P mutant (unknown origin).
Data set [21] deals with T2, Serine/threonine-protein kinase PLK1. Nature of the data set: Inhibition of PLK1 (unknown origin) at 1 uM relative to control.

The values below come from ChEMBL document CHEMBL4842364 (J Med Chem, 2021).

Some results are limits rather than exact numbers.

A word on the AUC: it is concentration integrated over time. Low readings indicate low exposure, high ones high exposure. For orientation: logD means the decadic logarithm of the distribution of all forms, ionised or not, between an organic phase and buffer at a given pH. A higher logD goes with higher lipophilicity. The term IC50 denotes the concentration needed to halve the response being measured. Usually AUC(0-t) stands for exposure summed from dosing to a finite time, without extrapolation to infinity. A low value points to less exposure. In general, Cmax refers to the maximum level reached in the sampled fluid or tissue. A word on the inhibition: it is the percentage by which the read-out fell short of the control. Higher therefore signals strong suppression. In general, half-life refers to the time in which the quantity being followed falls by half. Low values mean rapid decline, high ones slow decline.

T2 sequence (P53350 whole entry): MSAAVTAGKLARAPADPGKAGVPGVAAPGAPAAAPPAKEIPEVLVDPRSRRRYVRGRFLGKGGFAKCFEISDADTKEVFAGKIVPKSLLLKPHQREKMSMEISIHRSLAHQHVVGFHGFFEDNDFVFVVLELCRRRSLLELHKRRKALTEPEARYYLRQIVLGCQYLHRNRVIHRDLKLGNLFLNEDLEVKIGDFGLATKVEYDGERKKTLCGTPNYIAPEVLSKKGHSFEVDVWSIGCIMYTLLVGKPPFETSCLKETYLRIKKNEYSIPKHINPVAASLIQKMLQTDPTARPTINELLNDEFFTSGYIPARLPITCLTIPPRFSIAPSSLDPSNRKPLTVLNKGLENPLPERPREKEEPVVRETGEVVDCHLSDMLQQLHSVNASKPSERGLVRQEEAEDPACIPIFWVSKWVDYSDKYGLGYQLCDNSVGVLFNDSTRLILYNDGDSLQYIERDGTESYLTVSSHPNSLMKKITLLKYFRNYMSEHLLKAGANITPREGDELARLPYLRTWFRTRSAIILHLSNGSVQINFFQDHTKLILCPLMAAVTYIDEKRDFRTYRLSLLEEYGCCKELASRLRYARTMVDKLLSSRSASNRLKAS
Chain of Serine/threonine-protein kinase PLK2 (Q9NYY3 whole entry): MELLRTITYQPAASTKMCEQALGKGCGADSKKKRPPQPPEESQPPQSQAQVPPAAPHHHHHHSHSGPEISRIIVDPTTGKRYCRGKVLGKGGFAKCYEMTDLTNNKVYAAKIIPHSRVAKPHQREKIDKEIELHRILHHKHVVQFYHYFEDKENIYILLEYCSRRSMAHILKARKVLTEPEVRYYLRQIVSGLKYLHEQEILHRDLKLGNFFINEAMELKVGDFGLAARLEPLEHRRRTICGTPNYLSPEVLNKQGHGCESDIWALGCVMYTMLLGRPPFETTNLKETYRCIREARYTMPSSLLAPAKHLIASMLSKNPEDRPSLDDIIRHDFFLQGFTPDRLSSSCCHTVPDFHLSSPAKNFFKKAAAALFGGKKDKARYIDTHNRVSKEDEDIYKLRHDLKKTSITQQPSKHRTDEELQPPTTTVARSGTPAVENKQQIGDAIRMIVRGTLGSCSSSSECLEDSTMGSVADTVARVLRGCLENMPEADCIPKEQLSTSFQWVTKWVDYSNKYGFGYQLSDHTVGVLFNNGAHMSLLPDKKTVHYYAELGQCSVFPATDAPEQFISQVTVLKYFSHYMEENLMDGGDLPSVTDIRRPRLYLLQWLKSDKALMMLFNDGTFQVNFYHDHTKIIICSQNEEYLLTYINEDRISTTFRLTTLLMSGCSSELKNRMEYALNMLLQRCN
Chain of Serine/threonine-protein kinase PLK3 (Q9H4B4 whole entry, looked up): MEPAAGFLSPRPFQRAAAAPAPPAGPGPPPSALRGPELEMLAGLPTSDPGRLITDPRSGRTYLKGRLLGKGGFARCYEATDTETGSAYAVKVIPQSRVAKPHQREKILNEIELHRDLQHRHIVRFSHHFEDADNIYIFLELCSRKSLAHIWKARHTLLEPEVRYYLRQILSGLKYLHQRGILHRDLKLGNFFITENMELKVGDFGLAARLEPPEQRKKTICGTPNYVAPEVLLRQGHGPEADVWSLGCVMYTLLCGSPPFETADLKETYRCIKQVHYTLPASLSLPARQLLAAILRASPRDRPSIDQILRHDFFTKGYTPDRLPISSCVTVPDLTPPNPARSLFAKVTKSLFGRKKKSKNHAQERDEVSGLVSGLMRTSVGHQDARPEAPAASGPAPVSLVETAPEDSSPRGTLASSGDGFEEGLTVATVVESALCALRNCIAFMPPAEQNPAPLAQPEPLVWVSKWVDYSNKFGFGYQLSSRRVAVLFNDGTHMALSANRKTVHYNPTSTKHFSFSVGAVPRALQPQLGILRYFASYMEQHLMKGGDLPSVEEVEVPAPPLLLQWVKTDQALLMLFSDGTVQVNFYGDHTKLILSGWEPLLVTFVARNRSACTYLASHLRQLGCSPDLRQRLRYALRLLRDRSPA
Chain of Epidermal growth factor receptor (P00533 whole entry, looked up, stated change not applied): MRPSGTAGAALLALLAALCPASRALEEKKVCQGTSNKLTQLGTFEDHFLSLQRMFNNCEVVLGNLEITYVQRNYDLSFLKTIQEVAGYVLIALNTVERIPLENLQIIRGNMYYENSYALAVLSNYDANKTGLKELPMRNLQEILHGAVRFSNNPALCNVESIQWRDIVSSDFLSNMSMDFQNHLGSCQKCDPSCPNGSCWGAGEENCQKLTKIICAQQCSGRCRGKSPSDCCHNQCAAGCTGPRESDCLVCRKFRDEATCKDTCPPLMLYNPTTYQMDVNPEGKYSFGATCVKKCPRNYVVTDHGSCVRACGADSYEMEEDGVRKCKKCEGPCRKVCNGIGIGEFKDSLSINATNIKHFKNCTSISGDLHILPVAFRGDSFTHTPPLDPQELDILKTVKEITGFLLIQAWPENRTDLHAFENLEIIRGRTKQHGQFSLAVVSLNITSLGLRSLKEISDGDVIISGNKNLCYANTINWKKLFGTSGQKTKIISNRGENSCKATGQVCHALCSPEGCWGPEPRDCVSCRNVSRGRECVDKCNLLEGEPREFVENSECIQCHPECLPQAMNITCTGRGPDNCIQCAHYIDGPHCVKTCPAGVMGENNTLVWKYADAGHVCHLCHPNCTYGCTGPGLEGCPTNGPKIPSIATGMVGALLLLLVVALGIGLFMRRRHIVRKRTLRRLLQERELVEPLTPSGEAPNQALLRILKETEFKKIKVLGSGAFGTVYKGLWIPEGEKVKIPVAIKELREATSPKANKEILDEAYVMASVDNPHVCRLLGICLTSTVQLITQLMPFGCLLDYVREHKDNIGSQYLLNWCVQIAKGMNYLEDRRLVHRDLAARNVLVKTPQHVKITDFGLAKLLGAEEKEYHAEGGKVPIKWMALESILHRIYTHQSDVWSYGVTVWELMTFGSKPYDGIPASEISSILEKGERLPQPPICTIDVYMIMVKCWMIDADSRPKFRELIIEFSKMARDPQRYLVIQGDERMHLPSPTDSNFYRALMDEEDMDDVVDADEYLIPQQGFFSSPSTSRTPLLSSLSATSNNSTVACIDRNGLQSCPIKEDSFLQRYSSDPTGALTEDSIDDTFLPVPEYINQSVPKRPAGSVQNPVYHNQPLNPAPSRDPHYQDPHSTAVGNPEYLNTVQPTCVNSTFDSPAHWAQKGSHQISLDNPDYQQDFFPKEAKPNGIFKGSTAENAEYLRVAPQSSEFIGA

For `C=CCn1c(=O)c2cnc(Nc3ccc(N4CCN(C)CC4)cc3)nc2n1-c1ccc2c(n1)C(O)(CC)CC2` (racemic), the CLint scaled in [1] is < 18 mL/min/kg; in data set [14], 40 mL/min/kg. Besides, in data set [2], the AUC at 24 h was 2.1 µM·h. The same molecule returned a logD in data set [3] of 2.4. Also, the IC50 is 40 nM in [4]; 75 nM in data set [5]; 103 nM in data set [6]; 227 nM in data set [16]; 59 nM in data set [19]; 60 nM in data set [20]. In data set [7], the Papp A→B was determined as 3.6 ×10⁻⁶ cm/s. In addition, the AUC(0-t) at 24 h was determined as 27 µM·h in [8] and 32 µM·h in data set [12]. In data set [9], this molecule had a Cmax of 2100 nM. Moreover, the Vd in data set [10] was 4.4 L/kg. In addition, the inhibition in data set [11] is > 90%; in data set [13], > 90%; in data set [17], 75%; in data set [21] it was 75%. For the same molecule, the half-life in [15] was 2.3 h. For the same molecule, the bioavailability in [18] worked out at 142%.
